# From PubChem BioAssay AID1919000 (Molecular Pharmacology Branch, DTP, NCI, 2023)
# “And” between values parts separate entries of the source, which are not always exact repeats. Identical values can stand only once.
# System: 653999-131-R-J2-PDC complex spheroids, growth % test/control
# Experiment: Anticancer human tumor 653999-131-R-J2-PDC patient-derived lung adenocarcinoma cell line growth inhibition [AhR]
# Settings: for viability, T/C: stronger effect = lower value
# In short: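 Spheroids combined tumor cells with HUVEC endothelial cells and human MSCs as stroma. AhR antagonists were paired with standard or investigational drugs, each dosed in half-log steps down from near clinical Cmax, or from 10 microM where Cmax was unknown.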
# [1] = curve of first compound, second compound 0.1 µM
# [2] = curve of first compound, second compound 0.316 µM
# [3] = curve of first compound, second compound 1 µM
# [4] = curve of first compound, second compound 3.16 µM
# [5] = curve of first compound, second compound 10 µM
# [6] = second compound 0.1 µM, first compound 0.0316 µM
# [7] = second compound 0.1 µM, first compound 0.1 µM
# [8] = second compound 0.1 µM, first compound 0.316 µM
# [9] = second compound 0.1 µM, first compound 1 µM
# [10] = second compound 0.1 µM, first compound 3.16 µM
# [11] = second compound 0.1 µM, first compound 10 µM
# [12] = second compound 0.316 µM, first compound 0.0316 µM
# [13] = second compound 0.316 µM, first compound 0.1 µM
# [14] = second compound 0.316 µM, first compound 0.316 µM
# [15] = second compound 0.316 µM, first compound 1 µM
# [16] = second compound 0.316 µM, first compound 3.16 µM
# [17] = second compound 0.316 µM, first compound 10 µM
# [18] = second compound 1 µM, first compound 0.0316 µM
# [19] = second compound 1 µM, first compound 0.1 µM
# [20] = second compound 1 µM, first compound 0.316 µM
# [21] = second compound 1 µM, first compound 1 µM
# [22] = second compound 1 µM, first compound 3.16 µM
# [23] = second compound 1 µM, first compound 10 µM
# [24] = second compound 3.16 µM, first compound 0.0316 µM
# [25] = second compound 3.16 µM, first compound 0.1 µM
# [26] = second compound 3.16 µM, first compound 0.316 µM
# [27] = second compound 3.16 µM, first compound 1 µM
# [28] = second compound 3.16 µM, first compound 3.16 µM
# [29] = second compound 3.16 µM, first compound 10 µM
# [30] = second compound 10 µM, first compound 0.0316 µM
# [31] = second compound 10 µM, first compound 0.1 µM
# [32] = second compound 10 µM, first compound 0.316 µM
# [33] = second compound 10 µM, first compound 1 µM
# [34] = second compound 10 µM, first compound 3.16 µM
# [35] = second compound 10 µM, first compound 10 µM
# [36] = second compound 0.1 µM, first compound 0.000949 µM
# [37] = second compound 0.1 µM, first compound 0.003 µM
# [38] = second compound 0.1 µM, first compound 0.00949 µM
# [39] = second compound 0.1 µM, first compound 0.03 µM
# [40] = second compound 0.1 µM, first compound 0.0949 µM
# [41] = second compound 0.1 µM, first compound 0.3 µM
# [42] = second compound 0.316 µM, first compound 0.000949 µM
# [43] = second compound 0.316 µM, first compound 0.003 µM
# [44] = second compound 0.316 µM, first compound 0.00949 µM
# [45] = second compound 0.316 µM, first compound 0.03 µM
# [46] = second compound 0.316 µM, first compound 0.0949 µM
# [47] = second compound 0.316 µM, first compound 0.3 µM
# [48] = second compound 1 µM, first compound 0.000949 µM
# [49] = second compound 1 µM, first compound 0.003 µM
# [50] = second compound 1 µM, first compound 0.00949 µM
# [51] = second compound 1 µM, first compound 0.03 µM
# [52] = second compound 1 µM, first compound 0.0949 µM
# [53] = second compound 1 µM, first compound 0.3 µM
# [54] = second compound 3.16 µM, first compound 0.000949 µM
# [55] = second compound 3.16 µM, first compound 0.003 µM
# [56] = second compound 3.16 µM, first compound 0.00949 µM
# [57] = second compound 3.16 µM, first compound 0.03 µM
# [58] = second compound 3.16 µM, first compound 0.0949 µM
# [59] = second compound 3.16 µM, first compound 0.3 µM
# [60] = second compound 10 µM, first compound 0.000949 µM
# [61] = second compound 10 µM, first compound 0.003 µM
# [62] = second compound 10 µM, first compound 0.00949 µM
# [63] = second compound 10 µM, first compound 0.03 µM
# [64] = second compound 10 µM, first compound 0.0949 µM
# [65] = second compound 10 µM, first compound 0.3 µM
# 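Note: spheroids exposed to agents for seven days.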
# 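Throughout, for viability, T/C: 100% = DMSO vehicle control viability.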
compound,measurement,setting,value
COc1cc(C2c3cc4c(cc3C(OC3OC5COC(C)OC5C(O)C3O)C3COC(=O)C23)OCO4)cc(OC)c1O (configuration not stated) + Cc1cncc(-c2nc(NCCc3c[nH]c4ccccc34)c3ncn(C(C)C)c3n2)c1,IC50,[1],0.841 µM
same,IC50,[2],0.732 µM
same,IC50,[3],1.19 µM
same,IC50,[4],1.64 µM
same,IC50,[5],0.044 µM
same,"viability, T/C",[6],92.3%
same,"viability, T/C",[7],94.7%
same,"viability, T/C",[8],58.6%
same,"viability, T/C",[9],51.5%
same,"viability, T/C",[10],37.9%
same,"viability, T/C",[11],28.6%
same,"viability, T/C",[12],91%
same,"viability, T/C",[13],79.7%
same,"viability, T/C",[14],58.1%
same,"viability, T/C",[15],45.6%
same,"viability, T/C",[16],39%
same,"viability, T/C",[17],28.4%
same,"viability, T/C",[18],93.1%
same,"viability, T/C",[19],84.3%
same,"viability, T/C",[20],71%
same,"viability, T/C",[21],49.3%
same,"viability, T/C",[22],40.9%
same,"viability, T/C",[23],29%
same,"viability, T/C",[24],96.4%
same,"viability, T/C",[25],85.6%
same,"viability, T/C",[26],69%
same,"viability, T/C",[27],54.5%
same,"viability, T/C",[28],44.4%
same,"viability, T/C",[29],31.2%
same,"viability, T/C",[30],50.2%
same,"viability, T/C",[31],47.1%
same,"viability, T/C",[32],46.2%
same,"viability, T/C",[33],36.3%
same,"viability, T/C",[34],31.6%
same,"viability, T/C",[35],33.8%
CCc1c2c(nc3ccc(O)cc13)-c1cc3c(c(=O)n1C2)COC(=O)[C@]3(O)CC + CC(CO)NC(=O)c1cc(-c2ccc(Cl)cc2)nn(-c2cnn(C)c2)c1=O,IC50,[1],0.00743 µM
same,IC50,[2],0.00582 µM
same,IC50,[3],0.00693 µM
same,IC50,[4],0.00513 µM
same,IC50,[5],0.00497 µM
same,"viability, T/C",[36],68%
same,"viability, T/C",[37],59%
same,"viability, T/C",[38],48.4%
same,"viability, T/C",[39],32%
same,"viability, T/C",[40],21.5%
same,"viability, T/C",[41],12.7%
same,"viability, T/C",[42],64.1%
same,"viability, T/C",[43],58.8%
same,"viability, T/C",[44],42.3%
same,"viability, T/C",[45],34%
same,"viability, T/C",[46],19.4%
same,"viability, T/C",[47],11.4%
same,"viability, T/C",[48],67%
same,"viability, T/C",[49],60%
same,"viability, T/C",[50],45.4%
same,"viability, T/C",[51],33.7%
same,"viability, T/C",[52],21.2%
same,"viability, T/C",[53],13.8%
same,"viability, T/C",[54],50.2%
same,"viability, T/C",[55],50.8%
same,"viability, T/C",[56],49.9%
same,"viability, T/C",[57],29.1%
same,"viability, T/C",[58],22.1%
same,"viability, T/C",[59],15.8%
same,"viability, T/C",[60],63.2%
same,"viability, T/C",[61],55.8%
same,"viability, T/C",[62],42.9%
same,"viability, T/C",[63],30%
same,"viability, T/C",[64],21.8%
same,"viability, T/C",[65],16.1%
Nc1ncn(C2CC(O)C(CO)S2)c(=O)n1 (configuration not stated),"viability, T/C",compound 0.000949 µM,101% and 99.4% and 103%
same,"viability, T/C",compound 0.003 µM,96.3% and 106% and 112%
same,"viability, T/C",compound 0.00949 µM,98.4% and 110% and 100%
same,"viability, T/C",compound 0.03 µM,94.8% and 91% and 102%
same,"viability, T/C",compound 0.0949 µM,94.3% and 101% and 104%
same,"viability, T/C",compound 0.3 µM,86.8% and 100% and 89%
same,IC50,curve of compound,> 0.3 µM
COc1cc(Nc2ncc3c(n2)-c2ccc(Cl)cc2C(c2c(F)cccc2OC)=NC3)ccc1C(=O)O + CC(CO)NC(=O)c1cc(-c2ccc(Cl)cc2)nn(-c2cnn(C)c2)c1=O,IC50,[1],> 10 µM
same,IC50,[2],> 10 µM
same,IC50,[3],> 10 µM
same,IC50,[4],> 10 µM
same,IC50,[5],> 10 µM
same,"viability, T/C",[6],95%
same,"viability, T/C",[7],80.9%
same,"viability, T/C",[8],77.6%
same,"viability, T/C",[9],76.8%
same,"viability, T/C",[10],66%
same,"viability, T/C",[11],64%
same,"viability, T/C",[12],92.6%
same,"viability, T/C",[13],73.5%
same,"viability, T/C",[14],74.8%
same,"viability, T/C",[15],62.4%
same,"viability, T/C",[16],70.8%
same,"viability, T/C",[17],65.2%
same,"viability, T/C",[18],98.2%
same,"viability, T/C",[19],76.1%
same,"viability, T/C",[20],83.9%
same,"viability, T/C",[21],70.8%
same,"viability, T/C",[22],77.8%
same,"viability, T/C",[23],68.5%
same,"viability, T/C",[24],94.2%
same,"viability, T/C",[25],83%
same,"viability, T/C",[26],79.1%
same,"viability, T/C",[27],74.7%
same,"viability, T/C",[28],77.5%
same,"viability, T/C",[29],77.4%
same,"viability, T/C",[30],92.8%
same,"viability, T/C",[31],81%
same,"viability, T/C",[32],78.4%
same,"viability, T/C",[33],74%
same,"viability, T/C",[34],67.9%
same,"viability, T/C",[35],80.4%
CCc1c2c(nc3ccc(O)cc13)-c1cc3c(c(=O)n1C2)COC(=O)[C@]3(O)CC + Cc1cncc(-c2nc(NCCc3c[nH]c4ccccc34)c3ncn(C(C)C)c3n2)c1,IC50,[1],0.00427 µM
same,IC50,[2],0.00322 µM
same,IC50,[3],0.00417 µM
same,IC50,[4],0.00521 µM
same,IC50,[5],< 0.000949 µM
same,"viability, T/C",[36],62.3%
same,"viability, T/C",[37],56.1%
same,"viability, T/C",[38],38.4%
same,"viability, T/C",[39],27.4%
same,"viability, T/C",[40],19.4%
same,"viability, T/C",[41],13.7%
same,"viability, T/C",[42],59.1%
same,"viability, T/C",[43],50.6%
same,"viability, T/C",[44],39.1%
same,"viability, T/C",[45],26.2%
same,"viability, T/C",[46],18.3%
same,"viability, T/C",[47],13%
same,"viability, T/C",[48],67.2%
same,"viability, T/C",[49],55%
same,"viability, T/C",[50],38.5%
same,"viability, T/C",[51],28.1%
same,"viability, T/C",[52],19.4%
same,"viability, T/C",[53],13.6%
same,"viability, T/C",[54],58%
same,"viability, T/C",[55],58.1%
same,"viability, T/C",[56],42.6%
same,"viability, T/C",[57],28%
same,"viability, T/C",[58],18.8%
same,"viability, T/C",[59],12.3%
same,"viability, T/C",[60],36.4%
same,"viability, T/C",[61],32.3%
same,"viability, T/C",[62],25.5%
same,"viability, T/C",[63],16%
same,"viability, T/C",[64],11.2%
same,"viability, T/C",[65],8.25%
O=C(c1cc(Cc2n[nH]c(=O)c3ccccc23)ccc1F)N1CCN(C(=O)C2CC2)CC1 + Cc1ccccc1N=Nc1ccc(NC(=O)c2ccnn2C)c(C)c1,IC50,[1],> 10 µM
same,IC50,[2],> 10 µM
same,IC50,[3],> 10 µM
same,IC50,[4],> 10 µM
same,IC50,[5],> 10 µM
same,"viability, T/C",[6],106%
same,"viability, T/C",[7],101%
same,"viability, T/C",[8],91%
same,"viability, T/C",[9],92.7%
same,"viability, T/C",[10],88.4%
same,"viability, T/C",[11],77.6%
same,"viability, T/C",[12],96.1%
same,"viability, T/C",[13],101%
same,"viability, T/C",[14],95.5%
same,"viability, T/C",[15],89.3%
same,"viability, T/C",[16],89.6%
same,"viability, T/C",[17],84.3%
same,"viability, T/C",[18],94%
same,"viability, T/C",[19],104%
same,"viability, T/C",[20],94.8%
same,"viability, T/C",[21],84.2%
same,"viability, T/C",[22],91.8%
same,"viability, T/C",[23],82%
same,"viability, T/C",[24],95.1%
same,"viability, T/C",[25],94.9%
same,"viability, T/C",[26],91.5%
same,"viability, T/C",[27],87.1%
same,"viability, T/C",[28],85%
same,"viability, T/C",[29],76.2%
same,"viability, T/C",[30],89.8%
same,"viability, T/C",[31],88.3%
same,"viability, T/C",[32],87%
same,"viability, T/C",[33],82.3%
same,"viability, T/C",[34],84.4%
same,"viability, T/C",[35],72.8%
